Entries after “also recorded” stand apart in the source; their conditions may differ. Like-named read-outs stand apart in the source and are kept apart here.
Columns and labels:
[1] = test system: E. coli W3110hns-205::Tn10; type: cell-based; conditions: 3 mM, L-broth containing tetracycline, 37° C.; for Growth inhibition: semi-quantitative estimate
Method: A single E. coli colony (W3110 hns-205::Tn10) was picked from an L-agar plate containing tetracycline (10 μg ml^−1) and inoculated into 10 ml L-broth. This was grown overnight in a shaking incubator at 37° C. 200 μl of overnight culture was inoculated into 20 ml L-broth in a 50 ml conical flask, and grown at 37° C. in a shaking water bath to an optical density at 600 nm (OD600) of between 0.2 and 0.3. Two ml of this culture was inoculated into 18 ml pre-warmed L-broth containing tetracycline (10 μg ml^−1) to which had been added an appropriate volume of indole, isoquinoline, indoline, tryptamine, quinoline, or pyrrole stock solution (0.5 M in ethanol), IAA stock solution (0.5 M in water), 3-β-indoleacrylic acid stock solution (0.125 M in ethanol) or 1-acetylindoline stock solution (0.25 M in ethanol) to give a final concentration of 3 mM.

[2] = test system: W3110hns205 containing plasmid pCMT2bompAhGM-CSF; test: hGM-CSF expression in indole-treated cultures, ELISA of total cell lysates (FIG. 4); type: cell-based, E. coli; conditions: for hGM-CSF production: 42° C., L-broth
Method: For the experimentation for which results are shown in FIG. 4, W3110hns205 containing plasmid pCMT2bompAhGM-CSF^(see below) (which contains the coding sequence for the cytokine hGM-CSF fused to an ompA leader sequence, transcribed from promoter lambda PL under the control of the temperature sensitive repressor cI857) was grown in L-broth at 30° C. to an OD600 of 0.36, at which point the culture was transferred to 42° C. to induce cytokine expression. Simultaneously indole was added to the growth medium at final concentrations of 0, 2 or 4 mM (FIG. 4a).
Cytokine production was quantified by ELISA of total cell lysates and assay data were normalised for culture density (FIG. 4b). […] In the control culture (no indole), hGM-CSF increased in the first hour before declining.

[3] = test system: W3110hns-205 containing pCMT2blacZ; test: Growth and beta-galactosidase (LacZ) expression in indole-treated culture (FIG. 5); type: cell-based, E. coli; conditions: 2 mM indole, 42° C.
Method: For the experimentation for which results are shown in FIGS. 5a and 5b, W3110hns-205 containing pCMT2blacZ (a plasmid which contains the coding sequence for beta-galactosidase, transcribed from promoter lambda PL under the control of the temperature sensitive repressor cI857) was grown in L-broth at 30° C. to OD600=0.15. The culture was then divided into two and the temperature was increased to 42° C. to induce lacZ expression. Indole (2 mM) was added immediately to one subculture to induce a quiescent state, while the other was an indole-free control. Beta-galactosidase activities were measured for 24 hours after the temperature shift.

W3110 hns205 = test: Indole-induced quiescence of W3110 hns205 in broth culture (FIG. 2a, 2b, 3); type: cell-based, E. coli
Method: (§1) For the experimentation for which results are shown in FIG. 2a and FIG. 2b, W3110 and W3110hns-205 (Mukherjee et al., 2004) were cultured at 37° C. in tryptone water broth (Oxoid) supplemented with 0, 2 or 4 mM indole.
For the experimentation for which results are shown in FIG. 3a and FIG. 3b, W3110hns205 was cultured in L-broth at 30° C. (FIG. 3a) or 42° C. (FIG. 3b). At t=0 each culture was split into two and indole (final concentration 2 mM) was added to one part. […] The control cultures (no indole) continued to grow until they reached stationary phase.

E. coli BW25113 = test: Growth inhibition of E. coli BW25113 by indole in L-broth (FIG. 1); type: cell-based; conditions: 37° C.
Method: For the experimentation for which results are shown in FIG. 1, E. coli BW25113 (Datsenko & Wanner, 2000)was grown overnight at 37° C. in L-broth (Kennedy, 1971). The stationary phase culture was used to inoculate a series of L-broth cultures supplemented with indole (0-6 mM) and their growth was monitored over the next 7 hours.

W3110hns-205 pcIts857 = test: Comparison of indole- and Rcd-induced quiescence (FIG. 7); type: cell-based, E. coli; conditions: 42° C., L-broth
Method: The experiment for which results are shown in FIG. 7 compared the growth kinetics of Rcd-induced and indole-induced quiescent cultures. Cultures of W3110hns-205 pcIts^857 (Remaut et al., 1983) transformed with either pRcd1 (Rcd expression plasmid; Mukherjee et al., 2004)) or pUCdeltalacZ (control plasmid; no Rcd) were grown in L-broth at 30° C. for 90 minutes, then 2×5 ml aliquots of each culture were transferred to 50 ml conical flasks, pre-warmed to 42° C. (t=0). The temperature shift induces Rcd expression in cultures containing plasmid pRcdl but not in cultures containing pUCdeltalacZ. For each pair of cultures, indole (final concentration 2 mM) was added to one of them. IPTG was added to all cultures so that the induction of chromosomal LacZ could be monitored. Culture density was monitored over the following 24 h.

W3110 rnc-14 = test: Indole-induced quiescence in an rnc mutant (FIG. 6); type: cell-based, E. coli; conditions: 2 mM indole
Method: For the experimentation for which results are shown in FIG. 6, a culture of W3110 rnc-14 was grown in L-broth at 37° C. to a density of OD600=0.15. The culture was divided into two (t=0) and indole (2 mM) was added to one of the sub-cultures. Growth of the cultures was measured over the following 27 hours. While the control culture eventually reached stationary phase at OD600=2, the indole-treated culture entered a non-growing state after approximately 7 hours and remained at a density of OD600=1 (approx.).

[4] = test system: E. coli W3110hns-205::Tn10; type: cell-based; conditions: L-broth containing tetracycline
E. coli gene mdtE = conditions: 2 mM indole; cited from earlier work
E. coli W3110 = test: Growth of W3110 in tryptone water broth supplemented with indole (FIG. 2a); type: cell-based; conditions: 37° C.
Method: as §1

## NCCc1c[nH]c2ccccc12 [tryptamine]
[1]
  effect on growth (in words): some inhibition of growth but their effect was less severe than indole; also recorded: slight growth inhibition

## c1ccc2cnccc2c1 [isoquinoline]
[1]
  effect on growth (in words): very similar effects to indole; also recorded: significant inhibitory effects
  Growth inhibition: +++
[1]; listed as Isoquinoline
  effect on growth (in words): very similar effects to indole

## O=C(O)/C=C/c1c[nH]c2ccccc12 [3-β-indoleacrylic acid]
[1]
  effect on growth (in words): very similar effects to indole; also recorded: significant inhibitory effects
  Growth inhibition: +++

## c1ccc2[nH]ccc2c1 [indole]
[1]
  Growth inhibition: +++
[2]; 2 mM indole, quiescent culture
  hGM-CSF production: increased rapidly for the first hour
[2]; 2 mM indole, normalised for culture density
  peak hGM-CSF concentration of control culture (no indole) relative to quiescent culture: less than half
[2]; 4 mM indole
  hGM-CSF production: produced no hGM-CSF
[3]; L-broth
  final OD600: 0.78
[3]; after 24 h
  beta-galactosidase activity: 27,000 MU
W3110 hns205; 2 mM indole, L-broth
  effect on growth: enter a quiescent state
W3110 hns205; 2 mM indole, L-broth, 30° C. or 42° C.
  induction of quiescence: induce quiescence; also recorded: entered the quiescent state with similar kinetics at both temperatures
W3110 hns205; 2 mM indole, at 30° C., 37° C. and 42° C.
  persistence of the quiescent state: at least 24 hours
W3110 hns205; 4 mM indole, L-broth
  effect on growth: complete growth inhibition
W3110 hns205; 4 mM indole, tryptone water broth, 37° C.
  effect on growth: almost complete inhibition of growth
W3110 hns205; shake-flask culture
  appropriate final concentration of indole to induce quiescence: 2 mM
E. coli BW25113; 1 mM indole
  effect on growth: growth inhibition was not evident; also recorded: no effect upon growth
E. coli BW25113; 2 or 3 mM indole
  effect on growth: partial inhibition; also recorded: slowing of the growth rate
E. coli BW25113; 4, 5 or 6 mM indole
  effect on growth: Growth inhibition was severe; also recorded: almost complete inhibition of growth
W3110hns-205 pcIts857; 2 mM indole plus Rcd expression (pRcd1)
  induction of quiescence: entered a quiescent state but more rapidly and reached a lower final density
W3110hns-205 pcIts857; 2 mM indole, no Rcd
  induction of quiescence: enter a quiescent state with similar growth kinetics; also recorded: entered a quiescent state
W3110 rnc-14
  induction of quiescence: induce quiescence; also recorded: enters quiescence
W3110 rnc-14; L-broth, 37° C.
  culture density OD600 in non-growing state: ~1
  time to enter a non-growing state: approximately 7 hours
[4]
  minimum concentration which causes immediate growth inhibition: 3 mM
E. coli gene mdtE
  elevation of expression: 22 fold
E. coli W3110; 2 mM indole
  effect on growth: partial growth inhibition; also recorded: reduced growth rate
E. coli W3110; 4 mM indole
  effect on growth: inhibited growth severely; also recorded: completely inhibited growth

## c1ccc2ncccc2c1 [quinoline]
[1]
  effect on growth (in words): significant inhibitory effects
[1]; listed as Quinoline
  effect on growth (in words): some inhibition of growth but their effect was less severe than indole; also recorded: substantial growth inhibition, but less severe than that shown by indole

## O=C(O)Cc1c[nH]c2ccccc12 [IAA, indole-3-acetic acid]
[1]
  effect on growth (in words): slight stimulation of growth
  Growth inhibition: −^b
[1]; listed as indole acetic acid
  effect on growth (in words): not observed to have a significant effect on growth

## c1ccc2c(c1)CCN2 [indoline]
[1]
  effect on growth (in words): some inhibition of growth but their effect was less severe than indole
[1]; listed as Indoline
  effect on growth (in words): slight growth inhibition

## CC(=O)N1CCc2ccccc21 [1-acetylindoline]
[1]
  effect on growth (in words): substantial growth inhibition, but less severe than that shown by indole; also recorded: significant inhibitory effects

## pyrrole
[1]
  effect on growth (in words): no observed inhibitory effect
  Growth inhibition: −
[1]; listed as Pyrrole
  effect on growth (in words): not observed to have a significant effect on growth

Reference: patent publication US7790435B2, “Chemical induction in quiescence in bacteria” (priority 2005, dated 2010)
